In ChEMBL document CHEMBL5331046, “Disulfiram and dithiocarbamate analogues demonstrate promising antischistosomal effects” (Eur J Med Chem, 2022):
Active and inactive are the calls of the source. The rule behind the calls is not given here.

Assays:
[1] = system: Schistosoma mansoni; test: Antischistosomal activity against Schistosoma mansoni couples assessed as inhibition of eggs production at 100 uM measured upto 72 hrs by bright field microscopy; assay type: functional
[2] = system: Schistosoma mansoni; test: Antischistosomal activity against Schistosoma mansoni couples assessed as reduction in pairing stability at 100 uM measured upto 72 hrs by bright field microscopy; assay type: functional
[3] = system: Schistosoma mansoni; test: Antischistosomal activity against Schistosoma mansoni couples at 100 uM measured upto 72 hrs by bright field microscopy; assay type: functional, organism-based
[4] = system: Schistosoma mansoni; test: Antischistosomal activity against Schistosoma mansoni couples assessed as decrease in parasite motility at 10 uM measured upto 72 hrs by bright field microscopy; assay type: functional, organism-based
[5] = system: Schistosoma mansoni; test: Antischistosomal activity against Schistosoma mansoni couples assessed as decrease in pairing stability at 15 uM measured upto 72 hrs by bright field microscopy; assay type: functional; parameters: scale not given: the % may be the effect or the level left
[6] = system: Schistosoma mansoni; test: Antischistosomal activity against Schistosoma mansoni couples assessed as decrease in parasite vitality at 15 uM measured upto 72 hrs by bright field microscopy; assay type: functional; parameters: scale not given: the % may be the effect or the level left
[7] = system: Schistosoma mansoni; test: Antischistosomal activity against Schistosoma mansoni couples assessed as decrease in parasite motility at 15 uM measured upto 72 hrs by bright field microscopy; assay type: functional; parameters: scale not given: the % may be the effect or the level left
[8] = system: Schistosoma mansoni; test: Antischistosomal activity against Schistosoma mansoni couples assessed as inhibition of eggs production at 15 uM measured upto 72 hrs by bright field microscopy; assay type: functional; parameters: scale not given: the % may be the effect or the level left
[9] = system: Schistosoma mansoni; test: Antischistosomal activity against Schistosoma mansoni couples assessed as induction of phenotypes at 10 uM measured upto 72 hrs by bright field microscopy; assay type: functional, organism-based
[10] = system: Schistosoma mansoni; test: Antischistosomal activity against Schistosoma mansoni couples assessed as decrease in parasite motility at 25 uM measured upto 72 hrs by bright field microscopy; assay type: functional; parameters: scale not given: the % may be the effect or the level left
[11] = system: Schistosoma mansoni; test: Antischistosomal activity against Schistosoma mansoni couples assessed as induction of weak phenotypes at 25 uM measured upto 72 hrs by bright field microscopy; assay type: functional, organism-based
[12] = system: Schistosoma mansoni; test: Antischistosomal activity against Schistosoma mansoni couples assessed as decrease in parasite motility at 100 uM measured upto 72 hrs by bright field microscopy; assay type: functional
[13] = system: Schistosoma mansoni; test: Antischistosomal activity against Schistosoma mansoni couples at 25 uM measured upto 72 hrs by bright field microscopy; assay type: functional, organism-based
[14] = system: LS174T; test: Cytotoxicity against human LS174T cells assessed as reduction in cell viability at 100 uM by WST-1 assay; assay type: toxicity, cell-based
[15] = system: HepG2; test: Cytotoxicity against human HepG2 cells assessed as reduction in cell vaibility at 100 uM by WST-1 assay; assay type: toxicity, cell-based; conditions: hepg2, 100 µM
[16] = system: Schistosoma mansoni; test: Antischistosomal activity against Schistosoma mansoni couples assessed as reduction in pairing stability at 50 uM measured upto 72 hrs by bright field microscopy; assay type: functional, organism-based
[17] = system: Schistosoma mansoni; test: Antischistosomal activity against Schistosoma mansoni couples assessed as decrease in parasite motility at 50 uM measured upto 72 hrs by bright field microscopy; assay type: functional; parameters: scale not given: the % may be the effect or the level left
[18] = system: Schistosoma mansoni; test: Antischistosomal activity against Schistosoma mansoni couples assessed as inhibition of eggs production at 50 uM measured upto 72 hrs by bright field microscopy; assay type: functional, organism-based
[19] = system: Schistosoma mansoni; test: Antischistosomal activity against Schistosoma mansoni couples assessed as detachment of worms from culture dish at 100 uM measured upto 72 hrs by bright field microscopy; assay type: functional, organism-based
[20] = system: Schistosoma mansoni; test: Antischistosomal activity against Schistosoma mansoni couples assessed as gut dilations at 50 uM measured upto 72 hrs by bright field microscopy; assay type: functional, organism-based
[21] = system: Schistosoma mansoni; test: Antischistosomal activity against Schistosoma mansoni couples assessed as gut dilations at 100 uM measured upto 72 hrs by bright field microscopy; assay type: functional, organism-based
[22] = system: Schistosoma mansoni; test: Antischistosomal activity against Schistosoma mansoni couples assessed as tegument damage at 100 uM measured upto 72 hrs by bright field microscopy; assay type: functional, organism-based
[23] = system: Schistosoma mansoni; test: Antischistosomal activity against Schistosoma mansoni couples at >=50 uM measured upto 72 hrs by bright field microscopy; assay type: functional, organism-based
[24] = system: Schistosoma mansoni; test: Antischistosomal activity against Schistosoma mansoni couples at 10 uM measured upto 72 hrs by bright field microscopy; assay type: functional, organism-based
[25] = system: Schistosoma mansoni; test: Antischistosomal activity against Schistosoma mansoni couples assessed as eggs deformation at 100 uM measured upto 72 hrs by bright field microscopy; assay type: functional
[26] = system: Schistosoma mansoni; test: Antischistosomal activity against Schistosoma mansoni couples assessed as tegument damage at 50 uM measured upto 72 hrs by bright field microscopy; assay type: functional, organism-based
[27] = system: Schistosoma mansoni; test: Antischistosomal activity against Schistosoma mansoni couples assessed as intestinal dilations and tegument damage at 50 uM measured upto 72 hrs by bright field microscopy; assay type: functional, organism-based
[28] = system: HepG2; test: Cytotoxicity against human HepG2 cells assessed as reduction in cell vaibility at 50 uM by WST-1 assay; assay type: toxicity, cell-based; conditions: hepg2, 50 µM
[29] = system: LS174T; test: Cytotoxicity against human LS174T cells assessed as reduction in cell vaibility at 50 uM by WST-1 assay; assay type: toxicity, cell-based
[30] = system: Schistosoma mansoni; test: Antischistosomal activity against Schistosoma mansoni couples assessed as pairing instability at 50 uM measured upto 72 hrs by bright field microscopy; assay type: functional
[31] = system: HepG2; test: Cytotoxicity against human HepG2 cells assessed as reduction in cell viability upto 100 uM by WST-1 assay; assay type: toxicity, cell-based; conditions: hepg2, 100 µM
[32] = system: LS174T; test: Cytotoxicity against human LS174T cells assessed as reduction in cell vaibility upto 100 uM by WST-1 assay; assay type: toxicity, cell-based
[33] = system: Schistosoma mansoni; test: Antischistosomal activity against Schistosoma mansoni couples assessed as tegument damage upto 100 uM measured upto 72 hrs by bright field microscopy; assay type: functional, organism-based
[34] = system: Schistosoma mansoni; test: Antischistosomal activity against Schistosoma mansoni couples assessed as reduction in pairing stability at 10 uM measured upto 72 hrs by bright field microscopy; assay type: functional, organism-based
[35] = system: Schistosoma mansoni; test: Antischistosomal activity against Schistosoma mansoni couples assessed as inhibition of eggs production at 10 uM measured upto 72 hrs by bright field microscopy; assay type: functional, organism-based
[36] = system: Schistosoma mansoni; test: Antischistosomal activity against Schistosoma mansoni couples assessed as decrease in parasite vitality at 10 uM measured upto 72 hrs by bright field microscopy; assay type: functional
[37] = system: LS174T; test: Cytotoxicity against human LS174T cells assessed as reduction in cell vaibility at 25 uM by WST-1 assay; assay type: toxicity, cell-based
[38] = system: HepG2; test: Cytotoxicity against human HepG2 cells assessed as reduction in cell vaibility at 25 uM by WST-1 assay; assay type: toxicity, cell-based; conditions: hepg2, 25 µM

CCN(CC)C(=S)SCCCCCc1ccccc1
Activity [1]: Active
Activity [2]: inactive

CCN(CC)C(=S)NCc1ccccc1
Activity [3]: inactive

CCS(=O)(=O)N1CCN(C(=S)SCc2ccc([N+](=O)[O-])cc2)CC1
Activity [4]: inactive
Activity [5]: 20%
Activity [6]: 90%
Activity [7]: 50%
Activity [8]: 40%
Activity [9]: inactive

CCCCCCN(CCCCCC)C(=S)SCc1ccccc1
Activity [3]: inactive

Cl.N[C@@H](CO)C(=O)N1CCN(C(=S)SCc2ccc([N+](=O)[O-])cc2)CC1
Activity [10]: 30%
Activity [11]: Active

CCN(CC)C(=S)SCCCc1ccccc1
Activity [1]: 100%
Activity [12]: inactive
Activity [2]: 100%

Cl.N[C@@H](Cc1ccc(O)cc1)C(=O)N1CCN(C(=S)SCc2ccc([N+](=O)[O-])cc2)CC1
Activity [10]: 30%
Activity [11]: Active

CC(=O)N1CCN(C(=S)SCc2ccc([N+](=O)[O-])cc2)CC1
Activity [13]: inactive

CCN(CC)C(=S)SCC(N)=O
Activity [2]: Active

S=C(SCc1ccccc1)n1cnnc1
Activity [3]: inactive

CCN(CC)C(=S)SCc1ccc2ccccc2c1
Activity [14]: Non-Toxic
Activity [15]: Non-Toxic
Activity [16]: Active
Activity [17]: >50%
Activity [18]: Active

S=C(SCc1ccccc1)N1CCSCC1
Activity [14]: Non-Toxic
Activity [19]: Active
Activity [15]: Non-Toxic
Activity [20]: Active
Activity [17]: ~45%
Activity [21]: Active
Activity [12]: 45%

CCN(CC)C(=S)Sc1ccccc1
Activity [1]: Active
Activity [2]: inactive

O=[N+]([O-])c1ccc(CSC(=S)N2CCN(S(=O)(=O)C3CC3)CC2)cc1
Activity [4]: Active
Activity [5]: 20%
Activity [6]: 90%
Activity [7]: 50%
Activity [8]: 40%
Activity [9]: Active

CCN(CC)C(=S)S/C=C/c1ccccc1
Activity [22]: Active

CCCCS(=O)(=O)N1CCN(C(=S)SCc2ccc([N+](=O)[O-])cc2)CC1
Activity [4]: Active
Activity [5]: 20%
Activity [6]: 90%
Activity [7]: 50%
Activity [8]: 40%
Activity [9]: Active

Cc1ccc(CN2CCN(C(=S)SCc3ccccc3)CC2)cc1
Activity [3]: Active

S=C(SCc1ccccc1)N1CCCCC1
Activity [1]: Active
Activity [2]: Active

CCN1CCN(C(=S)SCc2ccccc2)CC1
Activity [23]: Active

CCN(CC)C(=S)OCc1ccccc1
Activity [1]: 100%
Activity [2]: 50%

CCC(CC)C(=S)SCc1ccccc1
Activity [3]: Active

CC(C)NC(=O)CN1CCN(C(=S)SCc2ccc([N+](=O)[O-])cc2)CC1
Activity [3]: Active
Activity [24]: inactive
Activity [13]: Active

CCN(CC)C(=S)SCCC1OCCCO1
Activity [17]: inactive

CCN(CC)C(=O)OCc1ccccc1
Activity [25]: ~100%

S=C(SCc1ccccc1)N1CCCc2ccccc21
Activity [3]: inactive

CCN(CC)C(=S)SCc1ccc(C#N)cc1
Activity [20]: Active
Activity [10]: Active
Activity [26]: Active
Activity [16]: Active
Activity [27]: Active
Activity [18]: Active

CCN(CC)C(=S)SCc1ccc(C(=O)O)cc1
Activity [3]: inactive

Cl.S=C(SCc1ccccc1)N1CCNCC1
Activity [22]: Active
Activity [28]: Toxic
Activity [17]: ~35%
Activity [29]: Toxic
Activity [21]: Active
Activity [12]: >=55%

CCCN1CCN(C(=S)SCc2ccccc2)CC1
Activity [23]: Active

S=C(SCc1ccccc1)N1CCSC1
Activity [19]: Active

CCN(CC)C(=O)SCc1ccccc1
Activity [1]: ~90%

CCN(CC)C(=S)SCCCCc1ccccc1
Activity [1]: Active
Activity [2]: inactive

CCN(CC)C(=S)SCC(=O)OC
Activity [2]: Active

CCN(CC)C(=S)CCc1ccccc1
Activity [3]: inactive

CCN(CC)C(=S)SC [METHYLDIETHYL CARBAMODITHIOATE]
Activity [14]: Non-Toxic
Activity [3]: inactive
Activity [15]: Non-Toxic

CCN(CC)C(=S)SC(c1ccccc1)c1ccccc1
Activity [2]: Active

CCN(CC)C(=S)SCCC1SCCCS1
Activity [30]: 0%
Activity [17]: Active
Activity [31]: Non-Toxic
Activity [32]: Non-Toxic
Activity [12]: <40%
Activity [33]: Active

CCN(CC)/C(=N/C#N)NCc1ccccc1
Activity [3]: inactive

CCN(CC)C(=S)SCc1ccc(-c2ccccc2)cc1
Activity [1]: Active

CSCC[C@H](N)C(=O)N1CCN(C(=S)SCc2ccc([N+](=O)[O-])cc2)CC1.Cl
Activity [4]: inactive
Activity [34]: Active
Activity [35]: Active
Activity [10]: 60%
Activity [36]: Active
Activity [37]: Toxic
Activity [38]: Toxic
Activity [11]: Active

CCN(CC)C(=S)SCCN1CCOCC1
Activity [25]: Active
Activity [2]: inactive

CCN(CC)C(=S)SCCc1ccccc1
Activity [1]: 100%
Activity [12]: inactive
Activity [2]: 100%

CCN(CC)C(=S)SCCC1OCCO1
Activity [30]: inactive
Activity [12]: inactive

CCC(CC)C(=O)SCc1ccccc1
Activity [3]: Active

S=C(SCc1ccccc1)n1ccnc1
Activity [1]: Active
Activity [2]: Active

O=C(c1ccco1)N1CCN(C(=S)SCc2ccc([N+](=O)[O-])cc2)CC1
Activity [13]: inactive

CCCCCN(CCCCC)C(=S)SCc1ccccc1
Activity [3]: inactive

S=C(SCc1ccccc1)N1CCN(/C=C/c2ccccc2)CC1
Activity [3]: inactive

O=[N+]([O-])c1ccc(CSC(=S)N2CCN(S(=O)(=O)c3cccc4ccccc34)CC2)cc1
Activity [7]: inactive

CCN(CC)C(=S)SCC(=O)O
Activity [2]: Active

S=C(SCc1ccccc1)N1CCN(c2ncccn2)CC1
Activity [3]: Active

O=C(C1CC1)N1CCN(C(=S)SCc2ccc([N+](=O)[O-])cc2)CC1
Activity [13]: inactive

CN(C)C(=S)SCc1ccccc1
Activity [25]: Active
Activity [2]: Active

S=C(SCc1ccccc1)N1CCc2ccccc2C1
Activity [3]: inactive

CCN(CC)C(=S)SCc1cccc2ccccc12
Activity [17]: ~30%

O=[N+]([O-])c1ccc(CSC(=S)N2CCN(CCO)CC2)cc1
Activity [3]: Active
Activity [24]: inactive
Activity [13]: Active

CCN(CC)C(=S)SCc1ccncc1
Activity [3]: inactive

CCN(CC)C(=S)SCCc1c[nH]c2ccccc12
Activity [21]: Active
Activity [12]: inactive

CCN(CC)C(=S)SCc1ccc(C)cc1
Activity [31]: Non-Toxic
Activity [32]: Non-Toxic

CCN(CC)C(=S)SCCC1SCCS1
Activity [30]: >90%
Activity [31]: Non-Toxic
Activity [32]: Non-Toxic
Activity [12]: >60%
Activity [33]: Active

CCN(CC)C(=S)SCc1ccccc1
Activity [1]: 100%
Activity [10]: 30%
Activity [28]: Toxic
Activity [29]: Toxic
Activity [12]: 50%
Activity [2]: 100%

CN1CCN(C(=S)SCc2ccccc2)CC1
Activity [23]: Active
